≈ marks a conversion by molar mass, not a printed value. Where two headings read alike, the source gives them in different places.
How the values were obtained:
Type in all cases: cell-based, Propionibacterium acnes
HL110PA3 strain (RT6) [1] = test: MIC by broth microdilution method, HL110PA3 strain; details: Cutibacterium acnes, read-out: MIC against acne bacterium strain HL110PA3 strain (RT6)
HL043PA1 strain (RT5) = test: MIC by broth microdilution method, HL043PA1 strain; details: for MIC: Cutibacterium acnes, read-out: MIC against acne bacterium strain HL043PA1 strain (RT5)
Experimental: (§1) An MIC is measured herein according to the broth microdilution method which is the standard method of Japanese Society of Chemotherapy.
(§2) The antibacterial activity of a test substance was determined based on the minimum inhibitory concentration (MIC). An MIC was measured according to the broth microdilution method which is the standard method of Japanese Society of Chemotherapy.
(§3) One-loopful of each acne bacterium strain listed in Table 1 was scraped off and inoculated into 5 mL of a GAM broth slant agar medium (pH 7.0, Nissui Pharmaceutical Co., Ltd.).
The inoculated acne bacterium strain was precultured at 37° C. in a nitrogen atmosphere (anaerobic condition) for 48 hours. […]
(§4) Each fatty acid (Tokyo Chemical Industry Co., Ltd.) listed in Table 2 was dissolved in dimethylsulfoxide (DMSO) as a solvent such that the concentration became 10,000 μg/mL, and used as a test substance.
(§5) Each of strain suspensions (5.0×10^4 cfu/mL) was aliquoted in a 96-well round bottom microplate, each of the test substance (fatty acid concentration 10,000 μg/mL) was added at a 1/10 volume to the aliquot and mixed to prepare measurement samples (fatty acid concentration: 1,000 μg/mL). Measurement samples in 2-fold dilution series were prepared using the strain suspension (fatty acid concentration from 0.48 to 1,000 μg/mL).
The measurement samples were incubated under an anaerobic condition at 37° C. for 2 days. The presence or absence of a precipitation of test microbial cells after the incubation was examined and the minimum concentration at which the precipitation of microbial cells […] was regarded as the MIC (μg/mL) of the test substance against the acne bacterium strain.

[2] = tested on: HL053PA1 strain (RT4) and HL043PA1 strain (RT5) versus HL110PA3 strain (RT6); test: Strain-selective antibacterial activity (average of MICRT6/MICRT4 and MICRT6/MICRT5)
From the text: Herein, “acne strain-selective antibacterial activity” or “strain-selective antibacterial activity” means an index indicating better inhibition of growth of a dominant strain in acne patients compared to that of a dominant strain in healthy subjects. It is expressed by the average value of the values (MICRT6/MICRT4, and MICRT6/MICRTS) obtained by dividing the minimum inhibitory concentration (MIC) of an object substance with respect to the dominant strain in healthy subjects (RT6 strain) (MICRT6) respectively by the MIC of the object substance with respect to the dominant strain in acne patients (RT4 strain) (MICRT4), and by the MIC of the object substance with respect to the dominant strain in acne patients (RT5 strain) (MICRT5).
The strain-selective antibacterial activity of each test substance (Table 2, right-most column) was evaluated based on the following rating criteria (Table 3). When the strain-selective antibacterial activity is indicated by a numerical range, the rating was based on the minimum value thereof.

HL053PA1 strain (RT4) = test: MIC by broth microdilution method, HL053PA1 strain; details: for MIC: Cutibacterium acnes, read-out: MIC against acne bacterium strain HL053PA1 strain (RT4)
Experimental: as §1, §2, §3
(§6) The inoculated acne bacterium strain was precultured at 37° C. in a nitrogen atmosphere (anaerobic condition) for 48 hours. The precultured microbial cells were diluted in a modified GAM broth liquid medium (pH 6.0) to a concentration of 5.0×10^4 cfu/mL (viable cell count per OD660=1 is 2.0×10^9 cfu/mL), to prepare strain suspensions.
as §4, §5
(§7) […] The presence or absence of a precipitation of test microbial cells after the incubation was examined and the minimum concentration at which the precipitation of microbial cells […] was regarded as the MIC (μg/mL) of the test substance against the acne bacterium strain.

HL110PA3 strain (RT6) [3] = test: MIC by broth microdilution method, HL110PA3 strain; details: for MIC: Cutibacterium acnes, read-out: MIC against acne bacterium strain HL110PA3 strain (RT6)
Experimental: as §1, §2, §3, §6, §4, §5, §7

[4] = control antibiotics, Comparative Example 2, method as Example 1, LOD = MIC <0.48 ng/mL
[5] = control antibiotics, Comparative Example 2, method as Example 1
[6] = 48 h, pH 6.0 modified GAM broth, anaerobic, 37° C., 2 days (Example 1)
[7] = monoacylglycerols, Example 3, method as Example 1
[8] = control antibacterial agents, Comparative Example 1, method as Example 1
[9] = 72 h, pH 5.0, estimated from the growth on day 3

With `CN(C)c1ccc(O)c2c1C[C@H]1C[C@H]3[C@H](N(C)C)C(O)=C(C(N)=O)C(=O)[C@@]3(O)C(O)=C1C2=O` [Minocycline, reference compound] the MIC (HL110PA3 strain (RT6) [1]; [4]) was less than 0.00048 µg/mL, the MIC (HL043PA1 strain (RT5); [5]) was 0.49 µg/mL (≈ 1.07 µM) and the Strain-selective antibacterial activity ([2]; control antibiotics, Comparative Example 2, for LOD calculated using 0.48 ng/mL as MIC of the RT6 strain) was <1.5 × 10^−3. The MIC (HL053PA1 strain (RT4); [5]) was 0.24 µg/mL (≈ 0.525 µM).
Compound `CC[C@H]1OC(=O)[C@H](C)[C@@H](O[C@H]2C[C@@](C)(OC)[C@@H](O)[C@H](C)O2)[C@H](C)[C@@H](O[C@@H]2O[C@H](C)C[C@H](N(C)C)[C@H]2O)[C@](C)(O)C[C@@H](C)/C(=N\OCOCCOC)[C@H](C)[C@@H](O)[C@]1(C)O` [Roxithromycin, reference compound] has an MIC (HL110PA3 strain (RT6) [1]; [4]) of 0.0038 µg/mL (≈ 0.00454 µM), an MIC (HL043PA1 strain (RT5); [5]) of 1000 µg/mL (≈ 1190 µM) and an MIC (HL053PA1 strain (RT4); [5]) of 500 µg/mL (≈ 597 µM).
`CCCCCC/C=C\CCCCCCCC(=O)O` [Palmitoleic acid (C16:1), Palmitoleic acid, reference compound] was tested, and the MIC (HL043PA1 strain (RT5); [6]) was 7.81 µg/mL (≈ 30.7 µM), the MIC (HL110PA3 strain (RT6) [3]; [6]) was 15.6 µg/mL (≈ 61.3 µM) and the Strain-selective antibacterial activity ([2]; pH 6.0 (Example 1)) was 1.2. For the same compound, the MIC (HL053PA1 strain (RT4); [6]) was 31.3 µg/mL (≈ 123 µM).
Compound `CCCCCCCCCCCCCCCCCC(=O)OCC(O)CO` (stereo not shown) [Monostearin] has an MIC (HL110PA3 strain (RT6) [1]; [7]) greater than 1000 µg/mL, an MIC (HL043PA1 strain (RT5); [7]) greater than 1000 µg/mL and an MIC (HL053PA1 strain (RT4); [7]) greater than 1000 µg/mL.
In the case of `Cc1cc(O)ccc1C(C)C` [reference compound], the “MIC against acne bacterium strain HL043PA1 strain (RT5)” value (HL043PA1 strain (RT5); [8]) is reported as 125 µg/mL (≈ 832 µM), the “MIC against acne bacterium strain HL110PA3 strain (RT6)” value (HL110PA3 strain (RT6) [3]; [8]) is reported as 62.5 µg/mL (≈ 416 µM) and the Strain-selective antibacterial activity ([2]; control antibacterial agents, Comparative Example 1) is reported as 0.50. For the same compound, the “MIC against acne bacterium strain HL053PA1 strain (RT4)” value (HL053PA1 strain (RT4); [8]) was 125 µg/mL (≈ 832 µM).
For `CCCCCCCC(=O)O` [Caprylic acid (C8:0), Caprylic acid, reference compound], the MIC (HL043PA1 strain (RT5); [6]) was 250 µg/mL (≈ 1730 µM), the MIC (HL110PA3 strain (RT6) [3]; [6]) was 125 µg/mL (≈ 867 µM) and the Strain-selective antibacterial activity ([2]; pH 6.0 (Example 1)) was 0.50. For the same compound, the MIC (HL053PA1 strain (RT4); [6]) was 250 µg/mL (≈ 1730 µM).
In the case of `CCCCCCCCCCCCCCCCCC(=O)O` [Stearic acid (C18:0), Stearic acid], the MIC (HL043PA1 strain (RT5); [6]) is reported as greater than 1000 µg/mL, the MIC (HL043PA1 strain (RT5); [9]) is reported as greater than 1000 µg/mL and the MIC (HL043PA1 strain (RT5); pH 6.5) is reported as greater than 1000 µg/mL. For the same compound, the MIC (HL043PA1 strain (RT5); pH 7.0) was 31.3 µg/mL (≈ 110 µM), the MIC (HL110PA3 strain (RT6) [3]; [6]) was greater than 1000 µg/mL and the MIC (HL110PA3 strain (RT6) [3]; 72 h, pH 5.5, estimated from the growth on day 3) was greater than 1000 µg/mL. The MIC (HL110PA3 strain (RT6) [3]; 96 h, pH 5.0, estimated from the growth on day 4) was greater than 1000 µg/mL, the MIC (HL110PA3 strain (RT6) [3]; pH 6.5) was greater than 1000 µg/mL and the MIC (HL110PA3 strain (RT6) [3]; pH 7.0) was 1000 µg/mL (≈ 3520 µM). The Strain-selective antibacterial activity ([2]; pH 7.0) was 24, the “Strain-selective antibacterial activity at each pH” value ([2]; pH 7 (summary Table 10)) was 24 and the MIC (HL053PA1 strain (RT4); [6]) was greater than 1000 µg/mL. It also gave an MIC (HL053PA1 strain (RT4); [9]) greater than 1000 µg/mL, an MIC (HL053PA1 strain (RT4); pH 5.5) greater than 1000 µg/mL and an MIC (HL053PA1 strain (RT4); pH 6.5) greater than 1000 µg/mL. It also gave an MIC (HL053PA1 strain (RT4); pH 7.0) of 62.5 µg/mL (≈ 220 µM).
Compound `CCCCCCCCCCC(=O)O` [Undecanoic acid (C11:0), Undecanoic acid, reference compound] has an MIC (HL043PA1 strain (RT5); [6]) of 15.6 µg/mL (≈ 83.7 µM), an MIC (HL110PA3 strain (RT6) [3]; [6]) of 15.6 µg/mL (≈ 83.7 µM) and a Strain-selective antibacterial activity ([2]; pH 6.0 (Example 1)) of 1.0. For the same compound, the MIC (HL053PA1 strain (RT4); [6]) was 15.6 µg/mL (≈ 83.7 µM).
For `CCCCCCCCCCCCCC(=O)OCC(O)CO` (stereo not shown) [Monomyristin], the “MIC against acne bacterium strain HL043PA1 strain (RT5)” value (HL043PA1 strain (RT5); [7]) was 500 µg/mL (≈ 1650 µM), the “MIC against acne bacterium strain HL110PA3 strain (RT6)” value (HL110PA3 strain (RT6) [3]; [7]) was greater than 1000 µg/mL and the Strain-selective antibacterial activity ([2]; monoacylglycerols, Example 3) was greater than 2.0. For the same compound, the “MIC against acne bacterium strain HL053PA1 strain (RT4)” value (HL053PA1 strain (RT4); [7]) was 500 µg/mL (≈ 1650 µM).
